According to publication PMC5789092 (Scientific Reports, 2018):
Like-named read-outs stand apart in the source and are kept apart here.

Columns and labels:
[1] = test system: HEp-2 (human larynx epidermal cancer); test: SRB cytotoxicity assay, HEp-2; assay type: cell-based; settings: 72 h, mean ± SD
Excerpt: (§1) All the synthesized derivatives of 1 and 2 were screened for their anticancer activities against four human cancer cell lines (HeLa, PC-3, HEp-2 and HepG2) and two normal cell lines (CHO and HUVEC) using the sulforhodamine B (SRB) assay.
(§2) PC-3 (human prostate cancer), HepG2 (human liver cancer) and CHO (Chinese hamster ovary) cell lines were obtained from Shanghai Institute of Biochemistry and Cell Biology, Chinese Academy of Sciences. HeLa (human cervix cancer), HUVEC (human umbilical vein endothelial cells) and HEp-2 (human laryngeal cancer) cell lines were granted by Prof. Lei of college of life sciences, Northwest A&F University. The six cell lines were grown in RPMI-1640 (Gibco) containing 10% (v/v) thermally inactivated fetal bovine serum (FBS), penicillin (100 KU/L) and streptomycin (100 KU/L) at 37 °C in a 5% CO2 humidified incubator.
(§3) In vitro cytotoxicity was assessed by using the SRB colorimetric assay refer to previous methods[19],[42].

[2] = test system: HUVEC (human umbilical vein endothelial cell); test: SRB cytotoxicity assay, HUVEC normal cells; assay type: cell-based; settings: for IC50: Homo sapiens, HUVEC, 72 h, SRB, normal cell line
[3] = test system: CHO (Chinese hamster ovary); test: SRB cytotoxicity assay, CHO normal cells; assay type: cell-based; settings: Cricetulus griseus, 72 h, normal cell line
Excerpt: as §1, §2, §3

[4] = test system: HeLa (human cervix cancer); test: SRB cytotoxicity assay, HeLa; assay type: cell-based; settings: 72 h, mean ± SD
[5] = test system: HepG2 (human liver cancer); test: SRB cytotoxicity assay, HepG2; assay type: cell-based; settings: 72 h
[6] = test system: PC-3 (human prostate cancer); test: SRB cytotoxicity assay, PC-3; assay type: cell-based; settings: 72 h
HepG2 cells = test: Hoechst 33258 nuclear morphology, HepG2; assay type: cell-based, human; settings: HepG2, 72 h
Description: Figure S2. Induction of apoptosis by active compounds 1 and 1i at the indicated concentrations on HepG2 cells. 72 h after the treatment of these compounds at the indicated concentrations, cells were fixed, washed with PBS, stained with Hoechst 33258, and analyzed for morphological characteristics associated with apoptosis by fluorescence microscopic analysis (20×). NMR spectra

[7] = test system: pro-caspase 3 and PARP in PC-3 cells; test: Western blotting of pro-caspase 3 and PARP; assay type: cell-based, human; settings: PC-3, 72 h, 1, 2 and 4 μM
Description: (§4) Figure 10 Induction of apoptosis by active compound 1i and VP-16 at the indicated concentrations on PC-3 cells. (a) 72 h after the treatment of these compounds at the indicated concentrations, cells were fixed, washed with PBS, stained with Hoechst 33258, and analyzed for morphological characteristics associated with apoptosis by fluorescence microscopic analysis (×20). (b) Compound 1i triggered changes of pro-caspase 3 and PARP by Western blotting analysis. Cells were lysed after 72 h treatment with 1i at the concentration (1, 2 and 4 μM). The lysates were resolved on a 10% SDS-PAGE, transferred on to a nitrocellulose membrane and probed for cleaved caspase 3 and PARP. β-actin was used as a loading control.
PC-3 cells were treated with the indicated concentrations (1, 2 and 4 µM) of 1i for 72 h, cell were collected and lysed. The protein concentration was measured by BCA method, and equal amount proteins were electrophoresed on 10% SDS-PAGE gel, electrotransferred onto NC membrane, and incubated with appropriate primary and secondary antibodies, protein blots were tested by ECL solution and ChemiDoc XRS+ imaging system (Bio-Rad, USA).

PC-3 cells [8] = test: Cell cycle analysis (PI staining, flow cytometry); assay type: cell-based, human; settings: PC-3, 48 h
Description: The cultured cells were treated with these compounds at the indicated concentrations for 48 h, then harvested, and analyzed by flow cytometry. […] Each experiment was performed in triplicate.
The cell cycle arrest on PC-3 and HepG2 cells was detected with PI staining assay (Sigma) as described previously[19]. After treatment with samples at the set concentrations for 48 h, cells were centrifuged and fixed in 70% ethanol at 4 °C refrigerator 12 h and then resuspended in PBS (100 μL RNase A and 400 μL PI). Cellular DNA content was measured using a FACSCalibur flow cytometer with Modfit LT 3.0 software. Twenty thousand cells were collected per sample. Mean values are presented from three independent experiments.

PC-3 cells [9] = test: Hoechst 33258 nuclear chromatin condensation, PC-3; assay type: cell-based, human; settings: PC-3, 72 h; VP-16 0.5 and 1 μM; 1i 1, 2 and 4 μM
Description: as §4
Condensation of nuclear chromatin is usually the late apoptotic event and is detected by staining Hoechst 33258[43]. PC-3 cells containing 2.0 × 10^5 cells/well were cultured on coverslips, and kept in six-well plates for 12 h. After 72 h treatment with 1i and VP-16, Hoechst 33258 staining was carried out according to the kit’s procedure (Beyotime Institute Biotechnology, China). The cells were viewed under a fluorescence microscopy (Olympus BX53 + DP72) with a ×20 objective lens.

[10] = test system: HeLa, PC-3, HEp-2 and HepG2 cells; test: SRB cytotoxicity, summary over the cancer cell lines; assay type: cell-based, human
[11] = test system: HEp-2 (human larynx epidermal cancer); settings: footnote b; ref Xiang et al.[22]; cited from earlier work
[12] = test system: CHO (Chinese hamster ovary); settings: footnote b; ref Xiang et al.[22]; cited from earlier work
[13] = mean ± SD, read-out: IC50 HepG2
[14] = read-out: IC50 HepG2 (Table 3, C13-methylene modified derivatives)
[15] = read-out: IC50 PC-3 (Table 3, C13-methylene modified derivatives)

| Compound | IC50 [1] [µM] | IC50 [4] [µM] | IC50 [5, 13] [µM] | IC50 ([6]; mean ± SD, read-out: IC50 PC-3) [µM] | IC50 [5, 14] [µM] | IC50 [6, 15] [µM] | further results |
| --- | --- | --- | --- | --- | --- | --- | --- |
| C=C1C(=O)OC2CC3(C)C(=CC12)C(C)CCC3OC(C)=O (stereo not drawn) [1a, 1β-ethanoyl alantolactone] | 10.3 ± 1.8 | 8.2 ± 1 | 6.3 ± 1.3 | 8.1 ± 0.3 | – | – | IC50 [2]: 12.3 ± 1.6 µM; IC50 [3]: 10.3 ± 1.8 µM |
| C=C1C(=O)O[C@@H]2C[C@]3(C)C(=C[C@H]12)[C@@H](C)CC[C@H]3OC(=O)c1ccccc1 [1b, 1β-benzoyl alantolactone] | > 40 | 25.5 ± 3.2 | > 40 | > 40 | – | – | – |
| C=C1C(=O)O[C@@H]2C[C@]3(C)C(=C[C@H]12)[C@@H](C)CC[C@H]3OC(=O)c1ccc(F)cc1 [1c, 1β-(4-fluorobenzoyl) alantolactone] | > 40 | > 40 | > 40 | > 40 | – | – | – |
| C=C1C(=O)O[C@@H]2C[C@]3(C)C(=C[C@H]12)[C@@H](C)CC[C@H]3OC(=O)c1ccc([N+](=O)[O-])cc1 [1d] | > 40 | > 40 | 23.5 ± 3.6 | > 40 | – | – | – |
| C=C1C(=O)O[C@@H]2C[C@]3(C)C(=C[C@H]12)[C@@H](C)CC[C@H]3OC(=O)c1ccc(OC)cc1 [1e] | > 40 | > 40 | 34.1 ± 4.8 | > 40 | – | – | – |
| C=C1C(=O)O[C@@H]2C[C@]3(C)C(=C[C@H]12)[C@@H](C)CC[C@H]3OC(=O)/C=C/c1ccc(Br)cc1 [1f, 1β-(4-bromocinnamoyl) alantolactone] | > 40 | > 40 | 12.5 ± 2.2 | 18.7 ± 5.2 | – | – | – |
| C=C1C(=O)O[C@@H]2C[C@]3(C)C(=C[C@H]12)[C@@H](C)CC[C@H]3OC(=O)/C=C/c1ccc(C(F)(F)F)cc1 [1g, 1β-(4-trifluoromethyl) alantolactone] | > 40 | 10 ± 2.1 | 15.2 ± 3.8 | 11.8 ± 2.8 | – | – | – |
| C=C1C(=O)O[C@@H]2C[C@]3(C)C(=C[C@H]12)[C@@H](C)CC[C@H]3OC(=O)CCC(=O)O [1h, 1β-carboxypropionyl alantolactone] | > 40 | > 40 | > 40 | > 40 | – | – | IC50 [2]: 39.5 ± 2.5 µM |
| C=C1C(=O)O[C@@H]2C[C@@]3(C)C(=O)CC[C@H](C)C3=C[C@H]12 [1i, 1-carbonyl-alantolactone] | 3.5 ± 0.9 | 2.7 ± 0.1 | 5.1 ± 0.2 | 2.5 ± 0.8 | > 40 | > 40 | IC50 [2]: 8.8 ± 0.7 µM; selectivity index (IC50 on four cancer cells versus HUVEC cells) ([2]; comparison of IC50 between four cancer cells and HUVEC): 2–3; nuclear morphology (Hoechst 33258), apoptosis (HepG2 cells): Changes of nuclear morphology; pro-caspase 3 and cleavage of PARP (Western blot) [7]: significant dose-dependent decrease in pro-caspase 3 and the cleavage of its substrate PARP; IC50 [3]: 2.5 ± 0.2 µM; %G0/G1 (PC-3 cells [8]; 1.0 μM): 50.5%; %G2/M (PC-3 cells [8]; 1.0 μM): 17.5%; %S (PC-3 cells [8]; 1.0 μM): 32.0%; %G0/G1 (PC-3 cells [8]; 2.0 μM): 47.7%; %G2/M (PC-3 cells [8]; 2.0 μM): 18.5%; %S (PC-3 cells [8]; 2.0 μM): 33.8%; %G0/G1 (PC-3 cells [8]; 4.0 μM): 44.6%; %G2/M (PC-3 cells [8]; 4.0 μM): 19.5%; %S (PC-3 cells [8]; 4.0 μM): 35.9%; nuclear morphology (Hoechst 33258), apoptosis (PC-3 cells [9]): apoptotic tendency was apparent |
| CC1CCC(OC(=O)c2ccccc2)C2(C)CC3OC(=O)C4(CCC(=O)O4)C3C=C12 (stereo not drawn) [1j, 1β-benzoyl alanto-spirobislactone] | – | – | – | – | > 40 | > 40 | – |
| Cc1ccc(C2=NO[C@]3(C2)C(=O)O[C@@H]2C[C@@]4(C)C(=O)CC[C@H](C)C4=C[C@@H]23)cc1 [1k, (11 S)-16-(p-methylphenyl)-spiroisoxazoline-1-carbonyl-alantolactone] | – | – | – | – | > 40 | > 40 | – |
| C[C@H]1CCC(=O)[C@]2(C)C[C@H]3OC(=O)[C@]4(CC(c5ccc([N+](=O)[O-])cc5)=NO4)[C@H]3C=C12 [1l, (11 S)-16-(p-nitrophenyl)-spiroisoxazoline-1-carbonyl-alantolactone] | – | – | – | – | > 40 | > 40 | – |
| C[C@H]1CCC(=O)[C@]2(C)C[C@H]3OC(=O)[C@]4(CC(c5ccccc5[N+](=O)[O-])=NO4)[C@H]3C=C12 [1m, (11 S)-16-(o-nitrophenyl)-spiroisoxazoline-1-carbonyl-alantolactone] | – | – | – | – | > 40 | > 40 | – |
| C[C@H]1CCC(=O)[C@]2(C)C[C@H]3OC(=O)[C@]4(CC(c5ccc(Cl)cc5)=NO4)[C@H]3C=C12 [1n, (11 S)-16-(p-chlorophenyl)-spiroisoxazoline-1-carbonyl-alantolactone] | – | – | – | – | > 40 | > 40 | – |
| COc1ccc(C2=NO[C@]3(C2)C(=O)O[C@@H]2C[C@@]4(C)C(=O)CC[C@H](C)C4=C[C@@H]23)cc1 [1o, (11 S)-16-(p-methoxyphenyl)-spiroisoxazoline-1-carbonyl-alantolactone] | – | – | – | – | > 40 | > 40 | – |
| COc1ccc(Cl)cc1C1=NO[C@]2(C1)C(=O)O[C@@H]1C[C@@]3(C)C(=O)CC[C@H](C)C3=C[C@@H]12 [1p, (11 S)-16-(5-chloro-2-methoxylphenyl)-spiroisoxazoline-1-carbonyl-alantolactone] | – | – | – | – | > 40 | > 40 | – |
| COc1cc(C2=NO[C@]3(C2)C(=O)O[C@@H]2C[C@@]4(C)C(=O)CC[C@H](C)C4=C[C@@H]23)c(Cl)c(OC)c1OC [1q, (11 S)-16-(2-chloro-3,4,5-trimethoxylphenyl)-spiroisoxazoline-1-carbonyl-alantolactone] | – | – | – | – | > 40 | > 40 | – |
| CC1CCC(O)C2(C)CC3OC(=O)C(C)C3C=C12 (stereo not drawn) [1r, (11 S)-1β-hydroxy alantolactone derivative] | – | – | – | – | > 50 | > 50 | cytotoxic activity in words ([10]; SAR statement on Tables 2 and 3): loss of cytotoxic activity |
| C=C1C(=O)O[C@@H]2C[C@]3(C)C(=C(C)CC[C@H]3OC(C)=O)C[C@H]12 [2a, 1β-ethanoyl ivangustin] | > 40 | 32.3 ± 2 | > 40 | 28.9 ± 4.5 | – | – | – |
| C=C1C(=O)O[C@@H]2C[C@]3(C)C(=C(C)CC[C@H]3OC(=O)c3ccccc3)C[C@H]12 [2b, 1β-benzoyl ivangustin] | > 40 | 27.9 ± 2.5 | > 40 | > 40 | – | – | – |
| C=C1C(=O)O[C@@H]2C[C@]3(C)C(=C(C)CC[C@H]3OC(=O)c3ccc(F)cc3)C[C@H]12 [2c, 1β-(4-fluorobenzoyl) ivangustin] | > 40 | > 40 | > 40 | > 40 | – | – | – |
| C=C1C(=O)O[C@@H]2C[C@@]3(C)C(=O)CCC(C)=C3C[C@H]12 [2d, 1-carbonyl-ivangustin] | 14.1 ± 2.9 | 8.6 ± 1.4 | 7.7 ± 1.5 | 7 ± 2.1 | – | – | IC50 [2]: 10.5 ± 0.5 µM; IC50 [3]: 12.1 ± 5.2 µM |
| C=C1C(=O)OC2CC3(C)C(=CC12)C(C)CCC3O (stereo not drawn) [compound 1, 1β-hydroxyalantolactone] | – | 3.2 ± 0.8 | 5.2 ± 0.1 | 4.5 ± 0.7 | – | – | IC50 [2]: 9.2 ± 0.1 µM; IC50 [11]: 3.3 ± 0.2 µM; IC50 ([10]; Homo sapiens, range over four cancer cell lines, read-out: IC50 range against HeLa, PC-3, HEp-2 and HepG2 cells): 3.2 to 6.4 µM; %G0/G1 (PC-3 cells [8]; 1.0 μM): 51.2%; %G2/M (PC-3 cells [8]; 1.0 μM): 17.1%; %S (PC-3 cells [8]; 1.0 μM): 31.7%; %G0/G1 (PC-3 cells [8]; 2.0 μM): 49.3%; %G2/M (PC-3 cells [8]; 2.0 μM): 16.7%; %S (PC-3 cells [8]; 2.0 μM): 34.0%; %G0/G1 (PC-3 cells [8]; 4.0 μM): 45.8%; %G2/M (PC-3 cells [8]; 4.0 μM): 18.0%; %S (PC-3 cells [8]; 4.0 μM): 36.2%; IC50 [12]: 6.4 ± 0.1 µM |
